Experiments:
[1] = test system: vasoconstrictive activity, human volunteers; test: vasoconstrictive activity in human volunteers (McKenzie and Stoughton's test or Falconi and Rossi's Paper-Patch Test); type: in vivo; conditions: for vasoconstrictive activity (in words): human volunteers
From the text: Some of the esters have been tested in human volunteers for their vasoconstrictive activity using the McKenzie and Stoughton's test (1) or the Falconi and Rossi's Paper-Patch Test (2) in comparison with a known anti-inflammatory corticosteroid, namely fluocinolone acetonide.
In the first experiment 2 dilutions of 4 esters have been tested on volunteers and 10 dilutions have been applied for each subject.
1. Mc Kenzie, A.W., Stoughton, R.B.: Method for comparing percutaneous
absorption of Steroids. Arch. Derm. 86, 608, 1962.
vasoconstrictive activity of Corticosteroids. Arch. Derm. 105, 856, 1972.

[2] = thymolytic activity (topical administration); type: in vivo, rat (adult female albino, Sprague-Dawley)
Procedure: (§1) The topical anti-inflammatory activity of the new compounds of this invention was determined using the cotton granuloma assay. This test was performed according to C. A. Winter and C. C. Porter J. Am. Pharm. Ass. Sci., Ed. 46, 515. 1957 using adult female albino rats (Sprague-Dawley) average body weight 150 grams. 8 animals per group.
(§2) The method consists in the subcutaneous implantation in the dorsal region of 2 sterile cotton pelletts. The pellets employed were 5 mm section cut from dental cotton rolls weighing about 45 mg each. The tested compound dissolved in ethyl alcohol, was absorbed on the pellets before implantation. Fluocinolone acetonide and Dexamethasone-21-acetate was used as comparison products and their activities were conventionally taken equal to 1 for each of the various parameters herein considered. Comparison substance and tested new compounds were absorbed on the pellets at the following scalar dosage per each pellet: 20-2-0.2 mcg/cotton pellet. For the controls the pellets were soakened in the pure solvent (ethyl alcohol) and then dried as usually.
(§3) In the following Table 1. there are reported the achieved results with regard to the anti-inflammatory activity, the thymolitic activity, and the LD50 values: […]

LD50 (acute toxicity) = conditions: in vivo, topical or ocular; Table 1, topical administration
From the text: as §3

granuloma formation = test: cotton granuloma assay, topical anti-inflammatory activity; type: in vivo, rat (adult female albino, Sprague-Dawley); parameters: key: relative potency; comparison steroid = 1; conditions: 20-2-0.2 mcg/cotton pellet, 7 days; for Anti-inflammatory activity (*): (*) in comparison with Fluocinolone acetonide; for Anti-inflammatory activity (**): (**) in comparison with Dexamethasone 21-acetate
Procedure: as §1, §2
After seven days the animals were sacrified. The pellets were removed and the exudate weights were recorded as a measure of the granuloma formation. The degree of granuloma inhibition reflects the anti-inflammatory activity of the tested compounds.
as §3

[3] = Table 2, first trial, dilution 10^4
[4] = Table 2, first trial, dilution 10^5
[5] = topical, relative, comparison product conventionally equal to 1 (Dexamethasone 21-acetate = 1)
[6] = Table 2a, second trial, dilution 10^3
[7] = Table 2a, second trial, dilution 10^4
[8] = Table 2a, second trial, dilution 10^5
[9] = Table 2a, second trial, dilution 10^6

SMILES	% Positive [1, 3]	Results (Positive/No. of subjects) [1, 3]	% Positive [1, 4]	Results (Positive/No. of subjects) [1, 4]	Thymolytic activity [2, 5]	LD50 (LD50 (acute toxicity))	Anti-inflammatory activity (*) (granuloma formation)	Anti-inflammatory activity (**) (granuloma formation)	further results
CCCC(=O)OCC(=O)[C@@]12NN=C[C@@H]1C[C@H]1[C@@H]3C[C@H](F)C4=CC(=O)C=C[C@]4(C)[C@@]3(F)[C@@H](O)C[C@@]12C [Example 16-17-Dif-Bu, 16α,17α-Isopyrazolino-1,4-pregnadiene-6α,9α-difluoro-11β,21-diol-3,20-dione-21-butyrate]	60%	3/5	20%	1/5	–	–	–	–	–
CC(=O)OCC(=O)[C@@]12N=NC[C@@H]1C[C@H]1[C@@H]3C[C@H](F)C4=CC(=O)C=C[C@]4(C)[C@@]3(F)[C@@H](O)C[C@@]12C [Pyr Dif-AC, 16α,17α-Pyrazolino-1,4-pregnadiene-6α,9α-difluoro-11β,21-diol-3,20-dione 21-acetate]	–	–	–	–	0.52	439 mg/kg	> 10	> 20	–
CC(C)(C)C(=O)OCC(=O)[C@@]12NN=C[C@@H]1C[C@H]1[C@@H]3C[C@H](F)C4=CC(=O)C=C[C@]4(C)[C@@]3(F)[C@@H](O)C[C@@]12C [16-17-M-Dif-Piv, 16α,17α-Isopyrazolino-1,4-pregnadiene-6α,9α-difluoro-11β,21-diol-3,20-dione-21-pivalate]	20%	1/5	0%	0/5	–	–	–	–	–
CC1(C)O[C@@H]2C[C@H]3[C@@H]4CCC5=CC(=O)C=C[C@]5(C)[C@@]4(F)[C@@H](O)C[C@]3(C)[C@]2(C(=O)CO)O1 [Triamcinolone acetonide, reference compound]	–	–	–	–	–	–	–	–	% Positive [1, 6]: 100%; Results (Positive/No. of subjects) [1, 6]: 5/5; % Positive [1, 7]: 100%; Results (Positive/No. of subjects) [1, 7]: 5/5; % Positive [1, 8]: 60%; Results (Positive/No. of subjects) [1, 8]: 3/5; % Positive [1, 9]: 40%; Results (Positive/No. of subjects) [1, 9]: 2/5
CC1(C)O[C@@H]2C[C@H]3[C@@H]4C[C@H](F)C5=CC(=O)C=C[C@]5(C)[C@@]4(F)[C@@H](O)C[C@]3(C)[C@]2(C(=O)CO)O1 [Fluocinolone acetonide, reference compound]	100%	5/5	60%	3/5	–	166 mg/kg	2	2	Thymolytic activity ([2]; rat, in vivo): 0.83
CC(=O)OCC(=O)[C@@]12NN=C[C@@H]1C[C@H]1[C@@H]3CCC4=CC(=O)C=C[C@]4(C)[C@@]3(F)[C@@H](O)C[C@@]12C [16-17 MF-AC, 16α,17α-Isopyrazolino-1,4-pregnadiene-9α-fluoro-11β,21-diol-3,20-dione-21-acetate]	–	–	–	–	0.02	> 2000 mg/kg	> 10	> 20	–
CCCCC(=O)OCC(=O)[C@@]12NN=C[C@@H]1C[C@H]1[C@@H]3CCC4=CC(=O)C=C[C@]4(C)[C@@]3(F)[C@@H](O)C[C@@]12C [Example 16-17-M-F-Va, 16α,17α-Isopyrazolino-1,4-pregnadiene-9α-fluoro-11β,21-diol-3,20-dione-21-valerate]	100%	5/5	40%	1/5	–	–	–	–	–
CC(=O)OCC(=O)[C@@]12N=NC[C@@H]1C[C@H]1[C@@H]3CCC4=CC(=O)C=C[C@]4(C)[C@@]3(F)[C@@H](O)C[C@@]12C [Pyr-F-Ac, 16α,17α-Pyrazolino-1,4-pregnadiene-9α-fluoro-11β,21-diol-3,20-dione-21-acetate]	–	–	–	–	0.14	721 mg/kg	≥ 10	≥ 20	–
CC(=O)OCC(=O)[C@@]1(O)[C@H](C)C[C@H]2[C@@H]3CCC4=CC(=O)C=C[C@]4(C)[C@@]3(F)[C@@H](O)C[C@@]21C [Dexamethasone 21-acetate, reference compound]	–	–	–	–	–	259 mg/kg	1	1	Thymolytic activity ([2]; rat, in vivo): 1
CCCCC(=O)OCC(=O)[C@@]12NN=C[C@@H]1C[C@H]1[C@@H]3C[C@H](F)C4=CC(=O)C=C[C@]4(C)[C@@]3(F)[C@@H](O)C[C@@]12C [16-17-M-Dif-Va, 16α,17α-Isopyrazolino-1,4-pregnadiene-6α,9α-difluoro-11β,21-diol-3,20-dione-21-valerate]	100%	5/5	40%	2/5	–	–	–	–	% Positive [1, 6]: 100%; Results (Positive/No. of subjects) [1, 6]: 5/5; % Positive [1, 7]: 80%; Results (Positive/No. of subjects) [1, 7]: 4/5; % Positive [1, 8]: 80%; Results (Positive/No. of subjects) [1, 8]: 4/5; % Positive [1, 9]: 60%; Results (Positive/No. of subjects) [1, 9]: 3/5; vasoconstrictive activity (in words) [1]: showed the best activity in the first trial; vasoconstrictive activity (in words) ([1]; listed as 16-17-Dif-Va): showed the same potency as fluocinolone acetonide even at the lower concentrations employed in the trials
CC(=O)OCC(=O)[C@@]12NN=C[C@@H]1C[C@H]1[C@@H]3C[C@H](F)C4=CC(=O)C=C[C@]4(C)[C@@]3(F)[C@@H](O)C[C@@]12C [16,17 M Dif-AC, 16α,17α-Isopyrazolino-1,4-pregnadiene-6α,9α-difluoro-11β,21-diol-3,20-dione 21-acetate]	–	–	–	–	0.26	1120 mg/kg	> 10	> 20	–

Source: patent US4232013A, “16,17-Pyrazolino- and 16,17-isopyrazolino-1,4-pregnadiene derivatives” (Lark S.p.A., priority 1977, dated 1980)
